Measurements reported in ChEMBL document CHEMBL1201862, “PubChem BioAssay data set” (2004).
Values joined by “and” are separate entries in the source; they are usually repeats but may differ in a detail not shown here. Equal values may be shown once. Active and inactive are the calls of the source.

Assays:
[1] = target: T1, Tyrosine-protein phosphatase non-receptor type 7 (Homo sapiens, UniProt P35236); experiment: HePTP tyrosine phosphatase activity blockers – biochemical, absorbance, leukemia target, primary screen (AID 521); assay type: functional
T1 sequence (P35236 whole entry): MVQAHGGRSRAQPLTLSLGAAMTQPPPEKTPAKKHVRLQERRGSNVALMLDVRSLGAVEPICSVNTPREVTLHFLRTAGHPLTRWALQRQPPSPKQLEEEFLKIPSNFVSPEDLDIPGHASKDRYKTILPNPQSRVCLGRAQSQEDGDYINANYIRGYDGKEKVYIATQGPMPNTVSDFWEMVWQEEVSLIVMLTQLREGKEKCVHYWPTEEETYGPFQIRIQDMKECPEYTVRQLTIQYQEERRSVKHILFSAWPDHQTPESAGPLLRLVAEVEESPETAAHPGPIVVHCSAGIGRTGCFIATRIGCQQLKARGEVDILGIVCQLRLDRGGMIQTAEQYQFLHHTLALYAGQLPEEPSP

[2] = target: Neuropeptides B/W receptor type 1 (Homo sapiens, UniProt P48145); experiment: Fluorescence-based dose response cell-based high throughput screening assay to identify antagonists of the G-protein coupled receptor 7 (GPR7). [Related pubchem assays: 1952 (Screening assay (GPR7 antagonists).), 1880 (Summary AID.)]; assay type: functional
[3] = target: Melanin-concentrating hormone receptor 1 (Homo sapiens, UniProt Q99705); experiment: Fluorescence-based counterscreen for antagonists of the G-protein coupled receptor 7 (GPR7): cell-based high throughput dose response assay to identify antagonists of the melanin-concentrating hormone receptor 1 (MCHR1).; assay type: functional
[4] = Luminescent dose response cell-based high throughput screening assay for inhibitors of the Janus kinase 2 mutant JAK2V617F. [Related pubchem assays: 1446 (Primary screen.), 1521 (Confirmation assay.), 1486 (Counter screen.)]; assay type: functional
[5] = target: Mannose-6-phosphate isomerase (Homo sapiens, UniProt P34949); experiment: MPI inhibition at elevated mannose 6-phosphate – biochemical, fluorescence intensity, high mannose 6-phosphate, primary screen (AID 1220)
Nonstructural protein 1 = Nonstructural protein 1 (Influenza A virus, UniProt Q194T2); assay type: functional, Influenza A virus (A/California/07/2009(H1N1))
[6] = target: Sphingosine 1-phosphate receptor 2 (Homo sapiens, UniProt O95136); experiment: Dose Response Cell Based Assay for Agonists of the S1P2 Receptor. [Related pubchem assays: 729, 736, 843 ]; assay type: functional
[7] = Luminescence Cell-Based Dose Confirmation HTS to Identify Inhibitors of Platelet Dense Granule Release. [Related pubchem assays: 1663 (Primary HTS), 1678 (Summary of Project)]; assay type: functional
[8] = target: Luciferin 4-monooxygenase (Photinus pyralis, UniProt P08659); experiment: inhibition of purified Photinus pyralis luciferase – biochemical, luminescence, dose response (AID 1891)
cells [9] = experiment: cells
[10] = target: T2, Oxysterols receptor LXR-beta (Homo sapiens, UniProt P55055); assay type: functional, cell-based;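 note: Cell-based luminescence dose-response assay of agonist activity at LXR, run as a confirmatory counterscreen to a daf-12 agonist screen; HEK293 cells with Gal4-LXR fusion and GAL4-driven luciferase reporter; agonist potency from rising luciferase signal of a Gal4-LXR reporter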
T2 sequence (P55055 whole entry): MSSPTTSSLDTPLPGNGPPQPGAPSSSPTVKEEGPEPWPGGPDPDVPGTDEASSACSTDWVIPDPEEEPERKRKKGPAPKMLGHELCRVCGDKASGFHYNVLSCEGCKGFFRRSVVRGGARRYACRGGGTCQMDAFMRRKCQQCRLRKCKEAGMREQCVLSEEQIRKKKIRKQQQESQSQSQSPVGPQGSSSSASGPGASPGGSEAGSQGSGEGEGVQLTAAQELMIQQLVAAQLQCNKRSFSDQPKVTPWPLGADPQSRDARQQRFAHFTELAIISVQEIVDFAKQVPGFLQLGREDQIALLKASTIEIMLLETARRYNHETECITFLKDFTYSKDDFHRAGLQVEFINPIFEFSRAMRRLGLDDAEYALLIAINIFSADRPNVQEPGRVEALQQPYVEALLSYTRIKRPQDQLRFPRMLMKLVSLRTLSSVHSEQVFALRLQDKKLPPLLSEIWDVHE

[11] = target: T3, Short transient receptor potential channel 4 (Mus musculus, UniProt Q9QUQ5); experiment: block of DAMGO-driven TRPC4 calcium entry – cell-based, HEK293 TRPC4/mu-opioid, Fluo-4 calcium, dose response (AID 434942); assay type: functional;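 note: potency of inhibitors blocking the TRPC4 calcium response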
T3 sequence (Q9QUQ5 whole entry): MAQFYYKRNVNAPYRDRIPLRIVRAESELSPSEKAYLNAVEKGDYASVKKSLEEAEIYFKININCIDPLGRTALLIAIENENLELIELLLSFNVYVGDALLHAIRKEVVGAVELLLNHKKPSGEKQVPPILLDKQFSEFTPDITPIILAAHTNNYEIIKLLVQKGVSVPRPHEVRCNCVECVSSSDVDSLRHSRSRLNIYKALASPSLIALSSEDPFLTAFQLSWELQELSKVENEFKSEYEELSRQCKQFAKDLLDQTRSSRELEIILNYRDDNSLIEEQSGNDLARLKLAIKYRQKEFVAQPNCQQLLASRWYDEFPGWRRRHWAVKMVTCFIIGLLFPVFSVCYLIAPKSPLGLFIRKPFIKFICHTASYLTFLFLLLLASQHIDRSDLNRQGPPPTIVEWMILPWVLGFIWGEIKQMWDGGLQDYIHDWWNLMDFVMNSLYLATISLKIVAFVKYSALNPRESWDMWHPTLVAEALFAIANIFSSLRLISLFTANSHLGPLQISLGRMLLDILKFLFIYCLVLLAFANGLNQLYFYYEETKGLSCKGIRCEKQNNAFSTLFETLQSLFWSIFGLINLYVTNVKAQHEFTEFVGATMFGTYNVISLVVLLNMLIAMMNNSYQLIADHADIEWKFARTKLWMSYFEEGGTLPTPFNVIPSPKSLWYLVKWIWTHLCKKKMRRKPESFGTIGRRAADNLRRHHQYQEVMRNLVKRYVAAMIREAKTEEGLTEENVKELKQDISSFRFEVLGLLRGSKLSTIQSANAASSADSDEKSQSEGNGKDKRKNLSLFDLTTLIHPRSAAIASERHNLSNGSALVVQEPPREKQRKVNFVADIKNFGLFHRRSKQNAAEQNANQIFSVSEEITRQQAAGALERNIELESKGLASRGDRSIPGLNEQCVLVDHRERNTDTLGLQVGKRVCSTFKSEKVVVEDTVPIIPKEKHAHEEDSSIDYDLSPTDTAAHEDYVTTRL

[12] = target: Voltage-gated inwardly rectifying potassium channel KCNH2 (Homo sapiens, UniProt Q12809); experiment: concentration-dependent hERG rescue from blockers – cell-based, thallium flux, dose response (AID 2121); assay type: ADME
cells [13] = assay type: functional, cell-based
[14] = viability loss in HepG2 hepatoma cells – cell-based, ATP luminescence, cherry-pick, activator set 2, cytotoxicity control, dose response (AID 1053143); assay type: functional
[15] = NIH3T3 cell viability loss – ATP luminescence, mouse fibroblasts, counter-screen, dose response (AID 2010); assay type: functional, cell-based;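 note: cells exposed to compound for about 90 hours before reading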
[16] = ATP-based viability loss in HeLa cells – cell-based, CellTiter-Glo luminescence, dry powder, set 2, cytotoxicity control, dose response (AID 720593); assay type: functional
[17] = Trypanosoma cruzi growth suppression in host cells – NIH3T3 host cells, beta-gal luminescence, confirmation (AID 2044); assay type: functional, cell-based;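 note: intracellular parasites grown in NIH/3T3 mouse fibroblasts as host cells; luminescent beta-galactosidase reporter signal from transgenic T. cruzi replicating inside host cells; inhibitors lower the luminescence signal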
[18] = ATP-based viability loss in HEK293T cells – cell-based, CellTiter-Glo luminescence, dry powder, set 2, cytotoxicity control, dose response (AID 720595); assay type: functional; conditions: HEK293
cells [19] = assay type: functional, cell-based; remark: listed apart in the source

Voltage-gated inwardly rectifying potassium channel KCNH2, sequence (Q12809 whole entry): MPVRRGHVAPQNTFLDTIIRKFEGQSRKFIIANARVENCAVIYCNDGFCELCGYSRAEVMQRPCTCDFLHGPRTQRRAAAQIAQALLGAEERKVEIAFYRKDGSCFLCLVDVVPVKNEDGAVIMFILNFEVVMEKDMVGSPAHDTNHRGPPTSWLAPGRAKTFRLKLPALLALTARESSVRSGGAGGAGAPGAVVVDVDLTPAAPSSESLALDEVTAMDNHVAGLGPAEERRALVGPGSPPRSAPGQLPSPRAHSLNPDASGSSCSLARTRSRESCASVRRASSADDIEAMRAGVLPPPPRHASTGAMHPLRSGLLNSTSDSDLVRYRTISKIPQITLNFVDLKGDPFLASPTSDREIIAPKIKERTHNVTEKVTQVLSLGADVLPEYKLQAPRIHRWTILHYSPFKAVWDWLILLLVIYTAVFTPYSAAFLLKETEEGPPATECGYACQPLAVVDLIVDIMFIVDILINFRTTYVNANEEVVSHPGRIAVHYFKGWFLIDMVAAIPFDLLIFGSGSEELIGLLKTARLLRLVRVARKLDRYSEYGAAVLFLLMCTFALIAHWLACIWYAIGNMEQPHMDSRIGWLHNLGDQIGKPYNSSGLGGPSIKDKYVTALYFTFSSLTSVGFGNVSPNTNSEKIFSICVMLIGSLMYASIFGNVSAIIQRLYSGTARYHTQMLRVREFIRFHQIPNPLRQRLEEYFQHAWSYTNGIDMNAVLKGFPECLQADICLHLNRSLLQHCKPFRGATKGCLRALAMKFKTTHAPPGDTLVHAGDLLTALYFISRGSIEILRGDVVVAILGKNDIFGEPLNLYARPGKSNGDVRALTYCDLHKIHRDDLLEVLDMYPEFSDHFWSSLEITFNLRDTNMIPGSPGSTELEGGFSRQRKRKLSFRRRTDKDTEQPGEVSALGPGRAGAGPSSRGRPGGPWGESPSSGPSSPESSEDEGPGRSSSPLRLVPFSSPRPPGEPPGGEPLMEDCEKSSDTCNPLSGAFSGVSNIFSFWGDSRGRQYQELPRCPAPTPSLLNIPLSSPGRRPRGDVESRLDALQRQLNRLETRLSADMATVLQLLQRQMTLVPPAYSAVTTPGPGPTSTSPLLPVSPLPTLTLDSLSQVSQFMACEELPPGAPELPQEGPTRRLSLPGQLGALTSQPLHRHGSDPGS
Neuropeptides B/W receptor type 1, sequence (P48145 whole entry): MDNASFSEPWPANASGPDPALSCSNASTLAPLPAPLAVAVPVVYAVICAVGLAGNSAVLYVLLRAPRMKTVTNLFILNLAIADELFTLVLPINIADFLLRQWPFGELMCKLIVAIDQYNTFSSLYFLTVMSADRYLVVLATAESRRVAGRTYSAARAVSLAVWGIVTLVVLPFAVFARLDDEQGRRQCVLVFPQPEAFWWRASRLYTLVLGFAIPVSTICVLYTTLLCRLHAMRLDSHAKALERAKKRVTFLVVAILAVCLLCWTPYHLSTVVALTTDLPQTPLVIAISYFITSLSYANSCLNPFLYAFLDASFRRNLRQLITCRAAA
Melanin-concentrating hormone receptor 1, sequence (Q99705 whole entry): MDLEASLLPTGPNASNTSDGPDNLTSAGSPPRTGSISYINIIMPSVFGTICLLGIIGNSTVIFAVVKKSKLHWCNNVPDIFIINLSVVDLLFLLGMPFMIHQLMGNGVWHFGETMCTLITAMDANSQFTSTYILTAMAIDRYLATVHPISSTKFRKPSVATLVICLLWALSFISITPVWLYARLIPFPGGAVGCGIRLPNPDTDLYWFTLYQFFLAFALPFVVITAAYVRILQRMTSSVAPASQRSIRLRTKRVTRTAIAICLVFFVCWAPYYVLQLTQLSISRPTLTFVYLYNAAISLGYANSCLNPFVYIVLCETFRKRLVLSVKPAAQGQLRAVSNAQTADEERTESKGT
Nonstructural protein 1, sequence (Q194T2 whole entry): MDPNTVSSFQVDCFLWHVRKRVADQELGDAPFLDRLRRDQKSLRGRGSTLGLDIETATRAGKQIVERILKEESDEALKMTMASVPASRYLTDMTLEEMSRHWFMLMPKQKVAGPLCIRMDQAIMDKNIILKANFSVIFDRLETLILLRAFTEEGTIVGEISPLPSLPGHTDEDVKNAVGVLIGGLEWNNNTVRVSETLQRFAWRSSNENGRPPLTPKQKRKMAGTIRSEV
Mannose-6-phosphate isomerase, sequence (P34949 whole entry): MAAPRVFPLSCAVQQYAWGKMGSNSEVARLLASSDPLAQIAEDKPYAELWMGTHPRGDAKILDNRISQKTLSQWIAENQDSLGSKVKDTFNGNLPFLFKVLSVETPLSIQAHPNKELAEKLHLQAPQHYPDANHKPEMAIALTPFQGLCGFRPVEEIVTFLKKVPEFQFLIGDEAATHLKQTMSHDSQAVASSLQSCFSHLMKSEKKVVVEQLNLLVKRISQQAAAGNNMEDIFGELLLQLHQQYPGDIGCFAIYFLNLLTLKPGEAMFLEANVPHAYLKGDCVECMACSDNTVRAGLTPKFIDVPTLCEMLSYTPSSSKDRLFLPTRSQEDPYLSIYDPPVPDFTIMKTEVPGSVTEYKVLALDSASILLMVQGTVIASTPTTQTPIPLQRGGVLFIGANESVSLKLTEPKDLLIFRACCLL
Sphingosine 1-phosphate receptor 2, sequence (O95136 whole entry): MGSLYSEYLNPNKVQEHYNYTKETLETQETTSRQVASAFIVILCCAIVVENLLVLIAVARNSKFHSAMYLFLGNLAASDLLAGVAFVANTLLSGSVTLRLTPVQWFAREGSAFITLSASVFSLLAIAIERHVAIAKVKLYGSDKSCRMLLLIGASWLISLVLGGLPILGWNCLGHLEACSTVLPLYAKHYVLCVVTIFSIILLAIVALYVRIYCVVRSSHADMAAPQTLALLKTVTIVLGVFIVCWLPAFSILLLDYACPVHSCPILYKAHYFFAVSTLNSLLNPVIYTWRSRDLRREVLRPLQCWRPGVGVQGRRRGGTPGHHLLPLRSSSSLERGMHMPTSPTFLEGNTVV
Luciferin 4-monooxygenase, sequence (P08659 whole entry): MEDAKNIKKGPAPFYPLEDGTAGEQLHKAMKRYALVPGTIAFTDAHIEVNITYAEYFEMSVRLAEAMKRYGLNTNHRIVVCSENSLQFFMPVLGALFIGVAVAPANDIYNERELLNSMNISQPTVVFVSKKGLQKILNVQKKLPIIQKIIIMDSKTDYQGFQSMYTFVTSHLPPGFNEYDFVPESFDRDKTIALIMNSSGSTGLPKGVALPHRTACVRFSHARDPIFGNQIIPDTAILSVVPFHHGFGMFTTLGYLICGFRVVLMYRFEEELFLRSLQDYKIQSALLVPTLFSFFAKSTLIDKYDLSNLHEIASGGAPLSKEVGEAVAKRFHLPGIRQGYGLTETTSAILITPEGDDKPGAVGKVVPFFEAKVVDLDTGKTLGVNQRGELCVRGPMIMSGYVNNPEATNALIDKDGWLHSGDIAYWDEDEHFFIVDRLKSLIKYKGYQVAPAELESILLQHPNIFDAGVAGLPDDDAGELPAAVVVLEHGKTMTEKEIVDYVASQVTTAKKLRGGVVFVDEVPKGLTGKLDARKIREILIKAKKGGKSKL

## CC(C)(C)OC(=O)N1CC(O)CC1C(=O)OCC(=O)c1ccc(Cl)cc1 (stereo not given)
[1]
  IC50: > 100 µM (not active)

## CCc1ccc(Cn2nnc(C(=O)Nc3ccc(OC)cc3OC)c2N)cc1
[2]
  IC50: > 43.8 µM (not active)
[3]
  IC50: > 43.8 µM (not active)

## Cc1ccc(Nc2nc(N)nc(CCl)n2)cc1
[4]
  IC50: 1.75 µM (active)

## COc1ccc(Nc2c([N+](=O)[O-])ccc3c2=NC2(CCCCC2)N=3)cc1
[5]
  IC50: > 50 µM (not active)
Nonstructural protein 1
  IC50: 11.1 µM (active)

## CCOC(=O)CN(C(=O)CSc1nnc(COc2ccc(OC)cc2)n1C)c1ccccc1
[6]
  EC50: > 50 µM (not active)

## N=C(NOC(=O)c1ccc(Cl)cc1Cl)c1ccccc1
[7]
  EC50: 6.01 µM (active)
[8]
  EC50: 1.06 µM (active)
Cells [9]
  EC50: > 67.5 µM (inactive)
[10]
  EC50: > 67.5 µM (inactive)

## O=C(O)c1ccc(Cl)cc1Nc1nc2cc(Cl)ccc2o1
[11]
  EC50: 5.31 µM (active)
[12]
  EC50: 11.3 µM (active) and 12 µM (active)

## CCc1cc2c(O)nc(-c3ccccn3)nc2s1
Cells [13]
  EC50: > 350 µM (not active)
[14]
  AC50: 14.2 µM (active)
[15]
  EC50: 2.45 µM (active)
[16]
  AC50: 24.1 µM (active)
[17]
  EC50: 1.38 µM (active)
[18]
  AC50: 34.5 µM (active)
Cells [19]
  EC50: 28.8 µM (active)
